Results published in ChEMBL document CHEMBL1126104, “Synthesis and antiviral activity of some new S-adenosyl-L-homocysteine derivatives” (1992).
In brackets after ≈: the same amount, converted by molar mass.

How the values were obtained:
[1] = tested on: Human immunodeficiency virus 1; assay: Antiviral activity against (HIV-1) in MT-4 cells Value in parentheses is inhibitory concentration for cell growth (MT-4); assay type: functional, MT4
Human alphaherpesvirus 2 = assay: Antiviral activity against HSV-2(G) strain in primary rabbit kidney (PRK) / embryonic skin-muscle (E6SM) fibroblast culture lines; assay type: functional; conditions: Human alphaherpesvirus 2, Muscle tissue
Coxsackievirus B4 [2] = assay: Antiviral activity against coxsackie B4 in Vero cell culture lines; assay type: functional; conditions: Enterovirus B
Coxsackievirus B4 [3] = assay: Antiviral activity against coxsackie B4 virus in HeLa cell culture lines; assay type: functional; conditions: Enterovirus B
Semliki Forest virus = assay: Antiviral activity against semliki forest virus (SFV) in Vero cell culture lines; assay type: functional
[4] = tested on: Vesicular stomatitis virus; assay: Antiviral activity against vesicular stomatitis virus (VSV) in HeLa cell culture lines,; assay type: functional
[5] = tested on: Vesicular stomatitis virus; assay: Antiviral activity against vesicular stomatitis virus (VSV) in primary rabbit kidney (PRK) / embryonic skin-muscle (E6SM) fibroblast culture lines; assay type: functional; conditions: Muscle tissue
Vaccinia virus = assay: Antiviral activity against vaccinia virus (VV) in primary rabbit kidney (PRK) / embryonic skin-muscle (E6SM) fibroblast culture lines; assay type: functional; conditions: Orthopoxvirus vaccinia, Muscle tissue
Human alphaherpesvirus 1 = assay: Antiviral activity against HSV-1(KOS) strain in primary rabbit kidney (PRK) / embryonic skin-muscle (E6SM) fibroblast culture lines; assay type: functional; conditions: Human alphaherpesvirus 1, Muscle tissue
Poliovirus 1 = assay: Antiviral activity against polio virus type 1 in HeLa cell culture lines; assay type: functional; conditions: Enterovirus C
Human respirovirus 3 = assay: Antiviral activity against parainfluenza virus type 3 in Vero cell culture lines; assay type: functional
Sindbis virus = assay: Antiviral activity against sindbis virus in Vero cell culture lines; assay type: functional
[6] = tested on: Mammalian orthoreovirus 1; assay: Antiviral activity against reovirus type 1 in Vero cell culture lines; assay type: functional

Row | SMILES | MIC [1] [µg/mL] | MIC (Human alphaherpesvirus 2) [µg/mL] | MIC (Coxsackievirus B4 [2]) [µg/mL] | MIC (Coxsackievirus B4 [3]) [µg/mL] | MIC (Semliki Forest virus) [µg/mL] | MIC [4] [µg/mL] | MIC [5] [µg/mL] | MIC (Vaccinia virus) [µg/mL] | MIC (Human alphaherpesvirus 1) [µg/mL] | MIC (Poliovirus 1) [µg/mL] | MIC (Human respirovirus 3) [µg/mL] | MIC (Sindbis virus) [µg/mL] | MIC [6] [µg/mL]
1 | Nc1nccc2c1ncn2[C@@H]1O[C@H](CSCCC(N)C(=O)O)C[C@H]1O (stereo partly drawn) | > 100 | > 400 | > 400 | > 400 | > 400 | > 400 | > 200 | > 400 | > 400 | > 400 | > 400 | > 400 | > 400
2 | CC(C)(C)C(=O)OCn1nc([C@@H]2O[C@H](CO)[C@@H](O)[C@H]2O)c2ncnc(N)c21 | > 0.8 | > 40 | > 10 | > 40 | > 10 | 30 (≈ 78.7 µM) | 30 (≈ 78.7 µM) | > 40 | 30 (≈ 78.7 µM) | > 40 | 1 (≈ 2.62 µM) | > 10 | 3 (≈ 7.87 µM)
3 | Nc1ncnc2c1ccn2C1O[C@H](CSCCC(NC(=O)C(F)(F)F)C(=O)O)[C@@H](O)[C@H]1O (stereo partly drawn) | > 20 | > 200 | > 400 | > 400 | > 400 | > 400 | > 200 | 20 (≈ 41.7 µM) | > 200 | > 400 | > 400 | > 400 | > 400
4 | Nc1ncnc2c1ncn2[C@@H]1O[C@H](CO)C[C@H]1O [CORDYCEPIN] | > 4 | > 40 | > 100 | > 100 | > 100 | > 100 | > 40 | > 100 | > 40 | > 100 | > 100 | > 100 | > 100
5 | Nc1ncnc2c1ncn2[C@H]1C[C@H](O)[C@@H](CO)O1 [DEOXYADENOSINE] | > 20 | 100 (≈ 398 µM) | > 200 | > 200 | > 200 | > 200 | > 200 | 150 (≈ 597 µM) | > 150 | > 200 | > 200 | > 200 | > 200
6 | NC(=O)c1ncn([C@@H]2O[C@H](CO)[C@@H](O)[C@H]2O)n1 [RIBAVIRIN] | > 20 | > 400 | > 70 | 40 (≈ 164 µM) | 200 (≈ 819 µM) | 20 (≈ 81.9 µM) | 50 (≈ 205 µM) | 30 (≈ 123 µM) | > 400 | 70 (≈ 287 µM) | 70 (≈ 287 µM) | 200 (≈ 819 µM) | 40 (≈ 164 µM)
